The results in this text go back to patent US20220143061A1, “3'3'-CYCLIC DINUCLEOTIDES AND PRODRUGS THEREOF” (INSTITUTE OF ORGANIC CHEMISTRY AND BIOCHEMISTRY ASCR, V.V.I., priority 2019, published 2022).

In experiment [1] the target is T1, human wild type STING (WT STING) (Homo sapiens, UniProt Q86WV6, H232R).
T1 construct: host or cells: 293T cells (ATCC CRL-3216), stably double transfected with pUNO1-hSTING-WT and pGL64.27-4×ISRE
Put plainly: 293T WT STING standard reporter assay. Type of experiment: cell-based. The following applies: no digitonin, 7 hours, ISRE firefly luciferase. The text has this:
Two complementary oligonucleotides of the sequence […] […] […] […] […] The oligonucleotides were mixed in equal molar amounts, hybridized, and cleaved by restriction endonucleases HindIII (cat. #. R0104S, NEB, Ipswich, USA) and BglII (cat. #R0144S, NEB, Ipswich, USA). Ultimately, they were ligated into plasmid pGL4.27 (cat. #E6651, Promega, Madison, USA) linearized with the same enzymes. As result the sequence with four ISRE sites was placed upstream of the minimum promoter of firefly luciferase reporter gene.
After 5 minutes incubation at room temperature (RT), 250 μL of the mixture was added dropwise to the cells in one well. Cells were incubated 36 hours at 37° C. with 5% CO2, and then detached with 0.05% Trypsin and 0.22 g/L EDTA (both cat. #L0941, Biowest, Riverside, USA).
Transfected cells were seeded onto poly-D-lysine coated six well plates at density 50,000 cells per 1 cm^2 in DMEM medium with high glucose containing 10% heat inactivated FBS, 30 μg/mL blasticidin (cat. #ant-b1-05, InvivoGen, San Diego, USA), 0.06 mg/ml Penicillin G and 0.1 mg/ml Streptomycin Sulfate (both cat. #. L0018, Biowest, Riverside, USA). The medium was replenished every 3-4 days until visible colonies of cells resistant to blasticidin were formed.
Blasticidin resistant cells stably expressing WT STING were further transfected with pGL64.27-4×ISRE plasmid following the same procedure as described above. […] Homogeneous culture of stably double transfected cells was prepared by limiting dilution of cells in 96 well plates and wells with cells were selected that originated from a single cell.
The medium was removed the next day and three-fold serial dilutions of compounds in 100 μl medium were added to the cells. The plates were incubated for 7 hours at 37° C. with 5% CO2. Next 50 μl of the medium was removed from wells, and 30 μl of ONE-Glo™ Luciferase Assay System reagent (cat. #E6120, Promega, Madison, USA) was added to each well. Luminescence was read on Synergy H1 (Biotek, Winooski, USA).
For orientation: Reporter assays use an easily measured gene product as a stand-in for the process of interest.

In experiment [2] the test system is peripheral blood mononuclear cell (PBMC). Put plainly: Peripheral blood mononuclear cell assay (cytokine levels). Type of experiment: cell-based. The following applies: 1 h with compound, wash, 15 hour incubation, average of one to four donors. Here is the method:
Selected compounds were tested in an in vitro peripheral blood mononuclear cell (PBMC) assay. […] Serially diluted tested compounds were added to wells in 50 μl of cultivation medium and cell were incubated with compounds for 1 h at 37° C. with 5% CO2. Plates with cells were then spun 500 g for 5 minutes and medium was removed. Cells were washed twice with the cell culture medium by the use of centrifugation and gently resuspended in 100 μl medium without compounds. After 15 hour incubation at 37° C. with 5% CO2, the cell culture medium was collected and the levels of interferon-alpha (INF-α), interferon-gamma (INF-γ) and tumor necrosis factor-alpha (TNF-α) were determined with ProcartaPlex Assays (ThermoFisher, Waltham, USA) and MAGPIX System (Merck KGaA, Darmstadt, Germany). […] Values reported are an average of runs from one to four donors.

Setting [3] is: 293T wtSTING-FL cells, read-out: 293T WT STING EC50.
Where [4] appears, read: 293T WT STING EC50, 293T wtSTING-FL cells.

Like-named read-outs stand apart in the source and are kept apart here.

T1 sequence (Q86WV6 whole entry H232R): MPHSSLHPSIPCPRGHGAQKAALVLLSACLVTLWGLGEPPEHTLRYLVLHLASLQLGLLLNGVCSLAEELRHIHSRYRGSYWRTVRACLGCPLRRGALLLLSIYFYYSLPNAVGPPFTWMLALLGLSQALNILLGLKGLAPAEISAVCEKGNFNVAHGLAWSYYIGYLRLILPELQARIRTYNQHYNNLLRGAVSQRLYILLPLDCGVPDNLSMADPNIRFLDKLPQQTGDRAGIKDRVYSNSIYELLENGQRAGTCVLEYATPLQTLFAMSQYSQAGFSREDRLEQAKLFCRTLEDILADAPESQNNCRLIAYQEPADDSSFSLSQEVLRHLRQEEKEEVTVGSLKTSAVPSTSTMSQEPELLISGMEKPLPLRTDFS

The EC50 is the concentration giving half of the maximal effect. `CC(C)(C)C(=O)OCOP1(=O)CO[C@H]2[C@@H](F)[C@H](n3cnc4c(N)ncnc43)O[C@@H]2COP(=O)(OCOC(=O)C(C)(C)C)O[C@H]2[C@@H](F)[C@H](n3cnc4c(N)ncnc43)O[C@@H]2CO1` (mixture of isomers) [Compound 41b, {[(1R,6R,8R,9R,10R,16R,18R,19R)-8,18-bis(6-amino-9H-purin-9-yl)-13-{[(2,2-dimethylpropanoyl)oxy]methoxy}-9,19-difluoro-3,13-dioxo-2,4,7,11,14,17-hexaoxa-3λ^5,13λ^5-diphosphatricyclo[14.3.0.0^6,^10]nonadecan-3-yl]oxy}methyl 2,2-dimethylpropanoate]: the EC50 in experiment [1] (setting [3]) is 30 nM; in experiment [2] (read-out: PBMC EC50 IFN-α), 250 nM; in experiment [2] (read-out: PBMC EC50 IFN-γ), 100 nM; in experiment [2] (read-out: PBMC EC50 TNF-α), 40 nM.

With `CC(C)OC(=O)OCOP1(=O)CO[C@H]2[C@@H](F)[C@H](n3cnc4c(N)ncnc43)O[C@@H]2COP(=O)(OCOC(=O)OC(C)C)O[C@H]2[C@@H](F)[C@H](n3cnc4c(N)ncnc43)O[C@@H]2CO1` (mixture of isomers) [Compound 42b, {[(1R,6R,8R,9R,10R,16R,18R,19R)-8,18-bis(6-amino-9H-purin-9-yl)-9,19-difluoro-3,13-dioxo-13-({[(propan-2-yloxy)carbonyl]oxy}methoxy)-2,4,7,11,14,17-hexaoxa-3λ^5,13λ^5-diphosphatricyclo[14.3.0.0^6,^10]nonadecan-3-yl]oxy}methyl propan-2-yl carbonate], the EC50 was found to be 250 nM in experiment [1] (setting [3]), 2300 nM in experiment [2] (read-out: PBMC EC50 IFN-α), 1300 nM in experiment [2] (read-out: PBMC EC50 IFN-γ) and 1100 nM in experiment [2] (read-out: PBMC EC50 TNF-α).

For `CCC(C)(C)C(=O)OCOP1(=O)CO[C@H]2[C@@H](F)[C@H](n3cnc4c(N)ncnc43)O[C@@H]2COP(=O)(OCOC(=O)C(C)(C)CC)O[C@H]2[C@@H](F)[C@H](n3cnc4c(N)ncnc43)O[C@@H]2CO1` (mixture of isomers) [Compound 44b, {[(1R,6R,8R,9R,10R,16R,18R,19R)-8,18-bis(6-amino-9H-purin-9-yl)-13-{[(2,2-dimethylbutanoyl)oxy]methoxy}-9,19-difluoro-3,13-dioxo-2,4,7,11,14,17-hexaoxa-3λ^5,13λ^5-diphosphatricyclo[14.3.0.0^6,^10]nonadecan-3-yl]oxy}methyl 2,2-dimethylbutanoate], the EC50 was 10 nM in experiment [1] (setting [3]), 200 nM in experiment [2] (read-out: PBMC EC50 IFN-α), 200 nM in experiment [2] (read-out: PBMC EC50 IFN-γ) and 200 nM in experiment [2] (read-out: PBMC EC50 TNF-α).

For the compound `CC1(C(=O)OCOP2(=O)CO[C@H]3[C@@H](F)[C@H](n4cnc5c(N)ncnc54)O[C@@H]3COP(=O)(OCOC(=O)C3(C)CCCCC3)O[C@H]3[C@@H](F)[C@H](n4cnc5c(N)ncnc54)O[C@@H]3CO2)CCCCC1` (mixture of isomers) [Compound 45b], the concentration for a half-maximal effect (EC50) in experiment [1] (setting [3]) was 30 nM; in experiment [2] (read-out: PBMC EC50 IFN-α) it was 70 nM; in experiment [2] (read-out: PBMC EC50 IFN-γ) it was 20 nM; in experiment [2] (read-out: PBMC EC50 TNF-α) it was 20 nM.

Consider `CCCCCCCCCCCC(=O)OCSP1(=O)OC[C@H]2O[C@@H](n3cnc4c(N)ncnc43)[C@H](F)[C@@H]2OCP(=O)(O)OC[C@H]2O[C@@H](n3cnc4c(N)ncnc43)[C@H](F)[C@@H]2O1` (single isomer, unassigned) [Compound 31b], for which the 50% effective concentration (EC50) is 800 nM in experiment [2] (read-out: PBMC EC50 IFN-α), 300 nM in experiment [2] (read-out: PBMC EC50 IFN-γ) and 500 nM in experiment [2] (read-out: PBMC EC50 TNF-α).

`CCCCCCCCCC(=O)OCSP1(=O)OC[C@H]2O[C@@H](n3cnc4c(N)ncnc43)[C@H](F)[C@@H]2OCP(=O)(O)OC[C@H]2O[C@@H](n3cnc4c(N)ncnc43)[C@H](F)[C@@H]2O1` (single isomer, unassigned) [Compound 36a]: the EC50 was found to be 2500 nM in experiment [2] (read-out: PBMC EC50 IFN-α), 1600 nM in experiment [2] (read-out: PBMC EC50 IFN-γ) and 1200 nM in experiment [2] (read-out: PBMC EC50 TNF-α).

As to `CCCCCCCCCC(=O)OCSP1(=O)OC[C@H]2O[C@@H](n3cnc4c(N)ncnc43)[C@H](F)[C@@H]2OCP(=O)(O)OC[C@H]2O[C@@H](n3cnc4c(N)ncnc43)[C@H](F)[C@@H]2O1` (single isomer, unassigned) [Compound 36b], the EC50 came out at 1000 nM in experiment [2] (read-out: PBMC EC50 IFN-α), 500 nM in experiment [2] (read-out: PBMC EC50 IFN-γ) and 800 nM in experiment [2] (read-out: PBMC EC50 TNF-α).

For the compound `CC(C)(C)C(=O)OCSP1(=O)CO[C@H]2[C@@H](F)[C@H](n3cnc4c(N)ncnc43)O[C@@H]2COP(=O)(SCOC(=O)C(C)(C)C)O[C@H]2[C@@H](F)[C@H](n3cnc4c(N)ncnc43)O[C@@H]2CO1` (single isomer, unassigned) [Compound 39a], in experiment [1] (setting [4]), the EC50 was determined as 1100 nM.

As for `CC(C)(C)C(=O)OCSP1(=O)CO[C@H]2[C@@H](F)[C@H](n3cnc4c(N)ncnc43)O[C@@H]2COP(=O)(SCOC(=O)C(C)(C)C)O[C@H]2[C@@H](F)[C@H](n3cnc4c(N)ncnc43)O[C@@H]2CO1` (single isomer, unassigned) [Compound 39b], the concentration giving a half-maximal response (EC50) in experiment [1] (setting [4]) was determined as 20 nM.

Consider `CC(C)(C)C(=O)OCSP1(=O)CO[C@H]2[C@@H](F)[C@H](n3cnc4c(N)ncnc43)O[C@@H]2COP(=O)(SCOC(=O)C(C)(C)C)O[C@H]2[C@@H](F)[C@H](n3cnc4c(N)ncnc43)O[C@@H]2CO1` (single isomer, unassigned) [Compound 39c], for which the EC50 in experiment [1] (setting [4]) turned out to be 30 nM.

For `CC(C)OC(=O)OCSP1(=O)CO[C@H]2[C@@H](F)[C@H](n3cnc4c(N)ncnc43)O[C@@H]2COP(=O)(SCOC(=O)OC(C)C)O[C@H]2[C@@H](F)[C@H](n3cnc4c(N)ncnc43)O[C@@H]2CO1` (single isomer, unassigned) [Compound 40b], the EC50 in experiment [1] (setting [4]) stood at 1200 nM.

Turning to `CC(C)OC(=O)OCSP1(=O)CO[C@H]2[C@@H](F)[C@H](n3cnc4c(N)ncnc43)O[C@@H]2COP(=O)(SCOC(=O)OC(C)C)O[C@H]2[C@@H](F)[C@H](n3cnc4c(N)ncnc43)O[C@@H]2CO1` (single isomer, unassigned) [Compound 40c], the EC50 in experiment [1] (setting [4]) turned out to be 3900 nM.

Take `CC(C)(C)C(=O)OCOP1(=O)CO[C@H]2[C@@H](F)[C@H](n3cnc4c(N)ncnc43)O[C@@H]2COP(=O)(OCOC(=O)C(C)(C)C)O[C@H]2[C@@H](F)[C@H](n3cnc4c(N)ncnc43)O[C@@H]2CO1` (single isomer, unassigned) [Compound 41a]: the EC50 in experiment [1] (setting [3]) came out at 40 nM.

Take `CC(C)OC(=O)OCOP1(=O)CO[C@H]2[C@@H](F)[C@H](n3cnc4c(N)ncnc43)O[C@@H]2COP(=O)(OCOC(=O)OC(C)C)O[C@H]2[C@@H](F)[C@H](n3cnc4c(N)ncnc43)O[C@@H]2CO1` (single isomer, unassigned) [Compound 42a]: the EC50 in experiment [1] (setting [3]) was found to be 8100 nM.

`Nc1nc2c(ncn2[C@@H]2O[C@@H]3COP(=O)(O)O[C@H]4[C@@H](O)[C@H](n5cnc6c(N)ncnc65)O[C@@H]4COP(=O)(O)O[C@@H]2[C@@H]3O)c(=O)[nH]1` [2′3′-cGAMP, reference compound]: the EC50 in experiment [2] (read-out: PBMC EC50 IFN-α) was found to be 300000 nM; in experiment [2] (read-out: PBMC EC50 IFN-γ), 164000 nM; in experiment [2] (read-out: PBMC EC50 TNF-α) it was 210000 nM.

Take `CCCCCCCCCCCCOC(=O)OCSP1(=O)OC[C@H]2O[C@@H](n3cnc4c(N)ncnc43)[C@H](F)[C@@H]2OCP(=O)(O)OC[C@H]2O[C@@H](n3cnc4c(N)ncnc43)[C@H](F)[C@@H]2O1` (stereo partly drawn) [Compound 34b, (((2R,3R,3aR,7aR,9R,10R,10aR,15aR)-2,9-bis(6-amino-9H-purin-9-yl)-3,10-difluoro-13-hydroxy-5,13-dioxidodecahydro-2H-difuro[3,2-d:3′,2′-k][1,3,7,10]tetraoxa[2,8]diphosphacyclotridecin-5-yl)thio)methyl dodecyl carbonate]: the EC50 in experiment [2] (read-out: PBMC EC50 IFN-α) came to 1300 nM; in experiment [2] (read-out: PBMC EC50 IFN-γ), 500 nM; in experiment [2] (read-out: PBMC EC50 TNF-α), 700 nM.
